{
  "source": "PubChem BioAssay AID256",
  "about": "(DTP/NCI, 2004)",
  "tested_on": "CD2F1 mice, L1210 leukemia ip, survival T/C",
  "experiment": "NCI In Vivo Anticancer Drug Screen. Data for tumor model L1210 Leukemia (intraperitoneal) in CD2F1 (CDF1) mice",
  "conditions": "higher = longer survival",
  "outline": "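Ratio T/C, where T is the treated-group value and C the vehicle-dosed control value, from mice implanted with a transplantable tumor.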",
  "note": "Values joined by “and” are separate entries in the source; they are usually repeats but may differ in a detail not shown here. Equal entries are not always repeated. Toxic doses and inconclusive results are not listed.",
  "data": [
    {"smiles": "CC(=O)Nc1cc(Cl)c2ncn(C3OC(CO)C(O)C3O)c2n1", "note": "(stereo not given)", "values": [
      {"measurement": "T/C", "setting": "endpoint: mean survival time, dose: 12.5 mg/kg/injection, schedule: Q01DX005 (ip), vehicle: water", "result": "102 % of control"},
      {"measurement": "T/C", "setting": "endpoint: mean survival time, dose: 25.0 mg/kg/injection, schedule: Q01DX005 (ip), vehicle: water", "result": "95 % of control"},
      {"measurement": "T/C", "setting": "endpoint: mean survival time, dose: 50.0 mg/kg/injection, schedule: Q01DX005 (ip), vehicle: water", "result": "102 % of control"},
      {"measurement": "T/C", "setting": "endpoint: mean survival time, dose: 100.0 mg/kg/injection, schedule: Q01DX005 (ip), vehicle: water", "result": "91 % of control"},
      {"measurement": "T/C", "setting": "endpoint: mean survival time, dose: 200.0 mg/kg/injection, schedule: Q01DX005 (ip), vehicle: water", "result": "101 % of control"}
    ]},
    {"smiles": "C[C@H](N)C(=O)N[C@@H]1[C@H]2C(=C(O)C[C@@H](O)[C@@H]2O)C(=O)O[C@]1(C)C(Cl)Cl", "values": [
      {"measurement": "T/C", "setting": "endpoint: median survival time, dose: 0.07 mg/kg/injection, schedule: Q03HX024 (ip), vehicle: saline", "result": "106 % of control"},
      {"measurement": "T/C", "setting": "endpoint: median survival time, dose: 0.09 mg/kg/injection, schedule: Q01DX009 (ip), vehicle: saline", "result": "106 % of control and 109 % of control"},
      {"measurement": "T/C", "setting": "endpoint: median survival time, dose: 0.14 mg/kg/injection, schedule: Q03HX024 (ip), vehicle: saline", "result": "120 % of control"},
      {"measurement": "T/C", "setting": "endpoint: median survival time, dose: 0.18 mg/kg/injection, schedule: Q01DX009 (ip), vehicle: saline", "result": "114 % of control and 118 % of control"},
      {"measurement": "T/C", "setting": "endpoint: median survival time, dose: 0.19 mg/kg/injection, schedule: Q01DX009 (ip), vehicle: Klucel (hydroxypropylcellulose) (HPC)", "result": "105 % of control and 110 % of control and 112 % of control"},
      {"measurement": "T/C", "setting": "endpoint: median survival time, dose: 0.21 mg/kg/injection, schedule: Q03HX008 (ip), vehicle: saline", "result": "103 % of control"},
      {"measurement": "T/C", "setting": "endpoint: median survival time, dose: 0.28 mg/kg/injection, schedule: Q03HX024 (ip), vehicle: saline", "result": "124 % of control"},
      {"measurement": "T/C", "setting": "endpoint: median survival time, dose: 0.34 mg/kg/injection, schedule: Q01DX005 (ip), vehicle: saline", "result": "116 % of control"},
      {"measurement": "T/C", "setting": "endpoint: median survival time, dose: 0.34 mg/kg/injection, schedule: Q01DX005 (iv), vehicle: saline", "result": "98 % of control"},
      {"measurement": "T/C", "setting": "endpoint: median survival time, dose: 0.37 mg/kg/injection, schedule: Q01DX009 (ip), vehicle: Klucel (hydroxypropylcellulose) (HPC)", "result": "120 % of control"},
      {"measurement": "T/C", "setting": "endpoint: median survival time, dose: 0.37 mg/kg/injection, schedule: Q01DX009 (ip), vehicle: saline", "result": "124 % of control"},
      {"measurement": "T/C", "setting": "endpoint: median survival time, dose: 0.37 mg/kg/injection, schedule: Q01DX009 (ip), vehicle: water", "result": "118 % of control"},
      {"measurement": "T/C", "setting": "endpoint: median survival time, dose: 0.38 mg/kg/injection, schedule: Q01DX009 (ip), vehicle: Klucel (hydroxypropylcellulose) (HPC)", "result": "117 % of control and 123 % of control and 111 % of control"},
      {"measurement": "T/C", "setting": "endpoint: median survival time, dose: 0.42 mg/kg/injection, schedule: Q03HX008 (ip), vehicle: saline", "result": "116 % of control"},
      {"measurement": "T/C", "setting": "endpoint: median survival time, dose: 0.56 mg/kg/injection, schedule: Q04DX003 (ip), vehicle: saline", "result": "113 % of control"},
      {"measurement": "T/C", "setting": "endpoint: median survival time, dose: 0.68 mg/kg/injection, schedule: Q01DX005 (iv), vehicle: saline", "result": "109 % of control"},
      {"measurement": "T/C", "setting": "endpoint: median survival time, dose: 0.75 mg/kg/injection, schedule: Q01DX009 (ip), vehicle: saline", "result": "150 % of control and 152 % of control and 155 % of control"},
      {"measurement": "T/C", "setting": "endpoint: median survival time, dose: 1.13 mg/kg/injection, schedule: Q04DX003 (ip), vehicle: saline", "result": "116 % of control"},
      {"measurement": "T/C", "setting": "endpoint: median survival time, dose: 1.5 mg/kg/injection, schedule: Q01DX009 (ip), vehicle: saline", "result": "155 % of control and 176 % of control and 190 % of control"},
      {"measurement": "T/C", "setting": "endpoint: median survival time, dose: 1.5 mg/kg/injection, schedule: Q01DX009 (ip), vehicle: water", "result": "153 % of control"},
      {"measurement": "T/C", "setting": "endpoint: median survival time, dose: 1.69 mg/kg/injection, schedule: Q01DX001 (ip), vehicle: saline", "result": "112 % of control"},
      {"measurement": "T/C", "setting": "endpoint: median survival time, dose: 1.69 mg/kg/injection, schedule: Q01DX001 (iv), vehicle: saline", "result": "101 % of control"},
      {"measurement": "T/C", "setting": "endpoint: median survival time, dose: 2.25 mg/kg/injection, schedule: Q04DX003 (ip), vehicle: saline", "result": "124 % of control"},
      {"measurement": "T/C", "setting": "endpoint: median survival time, dose: 2.7 mg/kg/injection, schedule: Q01DX005 (ip), vehicle: saline", "result": "167 % of control"},
      {"measurement": "T/C", "setting": "endpoint: median survival time, dose: 3.0 mg/kg/injection, schedule: Q01DX009 (oral), vehicle: saline", "result": "100 % of control"},
      {"measurement": "T/C", "setting": "endpoint: median survival time, dose: 3.38 mg/kg/injection, schedule: Q01DX001 (ip), vehicle: saline", "result": "116 % of control"},
      {"measurement": "T/C", "setting": "endpoint: median survival time, dose: 3.38 mg/kg/injection, schedule: Q01DX001 (iv), vehicle: saline", "result": "113 % of control"},
      {"measurement": "T/C", "setting": "endpoint: median survival time, dose: 6.0 mg/kg/injection, schedule: Q01DX009 (ip), vehicle: water", "result": "91 % of control"},
      {"measurement": "T/C", "setting": "endpoint: median survival time, dose: 6.0 mg/kg/injection, schedule: Q01DX009 (oral), vehicle: saline", "result": "97 % of control"},
      {"measurement": "T/C", "setting": "endpoint: median survival time, dose: 12.0 mg/kg/injection, schedule: Q01DX009 (oral), vehicle: saline", "result": "100 % of control"},
      {"measurement": "T/C", "setting": "endpoint: median survival time, dose: 24.0 mg/kg/injection, schedule: Q01DX009 (oral), vehicle: saline", "result": "112 % of control"}
    ]},
    {"smiles": "O=C1c2ccccc2C(=O)c2c(O)ccc(O)c21", "values": [
      {"measurement": "T/C", "setting": "endpoint: mean survival time, dose: 50.0 mg/kg/injection, schedule: Q01DX009 (ip), vehicle: saline", "result": "106 % of control"},
      {"measurement": "T/C", "setting": "endpoint: mean survival time, dose: 100.0 mg/kg/injection, schedule: Q01DX001 (ip), vehicle: saline with Tween-80", "result": "88 % of control"},
      {"measurement": "T/C", "setting": "endpoint: mean survival time, dose: 100.0 mg/kg/injection, schedule: Q01DX009 (ip), vehicle: saline", "result": "97 % of control"},
      {"measurement": "T/C", "setting": "endpoint: mean survival time, dose: 100.0 mg/kg/injection, schedule: Q04DX003 (ip), vehicle: saline with Tween-80", "result": "94 % of control"},
      {"measurement": "T/C", "setting": "endpoint: mean survival time, dose: 200.0 mg/kg/injection, schedule: Q01DX001 (ip), vehicle: saline with Tween-80", "result": "91 % of control"},
      {"measurement": "T/C", "setting": "endpoint: mean survival time, dose: 200.0 mg/kg/injection, schedule: Q01DX009 (ip), vehicle: saline", "result": "109 % of control"},
      {"measurement": "T/C", "setting": "endpoint: mean survival time, dose: 200.0 mg/kg/injection, schedule: Q04DX003 (ip), vehicle: saline with Tween-80", "result": "102 % of control"},
      {"measurement": "T/C", "setting": "endpoint: mean survival time, dose: 400.0 mg/kg/injection, schedule: Q01DX001 (ip), vehicle: saline with Tween-80", "result": "86 % of control"},
      {"measurement": "T/C", "setting": "endpoint: mean survival time, dose: 400.0 mg/kg/injection, schedule: Q04DX003 (ip), vehicle: saline with Tween-80", "result": "103 % of control"}
    ]}
  ]
}
